# Data: ChEMBL document CHEMBL4265965, “Dichloroacetophenones targeting at pyruvate dehydrogenase kinase 1 with improved selectivity and antiproliferative activity: Synthesis and structure-activity relationships” (Bioorg Med Chem Lett, 2018)
# Calls of active or inactive are those of the source. The rule behind the calls is not given here.
# Tests used:
# [1] = molecular target: [Pyruvate dehydrogenase (acetyl-transferring)] kinase isozyme 1, mitochondrial (Homo sapiens, UniProt Q15118); experiment: Inhibition of recombinant human N-terminal His6/Sumo-tagged PDK1 (29 to 436 residues) expressed in Escherichia coli BL21 at 1 uM by kinase-glo luminescence assay relative to control
# [2] = tested on: NCI-H1975; experiment: Antiproliferative activity against human NCI-H1975 cells assessed as inhibition of cell proliferation at 12 uM after 72 hrs by MTT assay relative to control; type: functional; conditions: for inhibition at 12 µM: NCI-H1975, 72 h
# [3] = tested on: A549; experiment: Antiproliferative activity against human A549 cells assessed as inhibition of cell proliferation at 2 uM after 72 hrs by MTT assay relative to control; type: functional; conditions: for inhibition at 2 µM: A549, 72 h
# [4] = tested on: NCI-H1975; experiment: Antiproliferative activity against human NCI-H1975 cells assessed as inhibition of cell proliferation at 2 uM after 72 hrs by MTT assay relative to control; type: functional; conditions: for inhibition at 2 µM: NCI-H1975, 72 h
# [5] = organism: Sus scrofa; experiment: Inhibition of porcine PDK1 assessed as activation of pyruvate dehydrogenase complex at 1 uM measured after 3 mins
# [6] = tested on: NCI-H1975; experiment: Antiproliferative activity against human NCI-H1975 cells assessed as inhibition of cell proliferation at 6 uM after 72 hrs by MTT assay relative to control; type: functional; conditions: for inhibition at 6 µM: NCI-H1975, 72 h
# [7] = tested on: A549; experiment: Antiproliferative activity against human A549 cells assessed as inhibition of cell proliferation at 6 uM after 72 hrs by MTT assay relative to control; type: functional; conditions: for inhibition at 6 µM: A549, 72 h
# [8] = tested on: NCI-H1650; experiment: Antiproliferative activity against human NCI-H1650 cells assessed as inhibition of cell proliferation at 2 uM after 72 hrs by MTT assay relative to control; type: functional; conditions: for inhibition at 2 µM: NCI-H1650, 72 h
# [9] = tested on: NCI-H1650; experiment: Antiproliferative activity against human NCI-H1650 cells assessed as inhibition of cell proliferation at 6 uM after 72 hrs by MTT assay relative to control; type: functional; conditions: for inhibition at 6 µM: NCI-H1650, 72 h
# [10] = tested on: NCI-H1650; experiment: Antiproliferative activity against human NCI-H1650 cells assessed as inhibition of cell proliferation at 12 uM after 72 hrs by MTT assay relative to control; type: functional; conditions: for inhibition at 12 µM: NCI-H1650, 72 h
# [11] = tested on: A549; experiment: Antiproliferative activity against human A549 cells assessed as inhibition of cell proliferation at 12 uM after 72 hrs by MTT assay relative to control; type: functional; conditions: for inhibition at 12 µM: A549, 72 h
inhibition [1],inhibition [5],Compound,inhibition at 12 µM [2],inhibition [3],inhibition [4],inhibition at 6 µM [6],inhibition at 6 µM [7],inhibition [8],inhibition at 6 µM [9],inhibition at 12 µM [10],inhibition at 12 µM [11],inhibition at 2 µM [3],inhibition at 2 µM [4],inhibition at 2 µM [8],inhibition [2],inhibition [6],inhibition [7],inhibition [9],inhibition [10],inhibition [11]
Active,Active,O=C(c1ccc(OCCCCCBr)c([N+](=O)[O-])c1)C(Cl)Cl,99.7%,–,–,49.8%,29.4%,inactive,39.7%,78.6%,69.7%,6.9%,6.9%,–,–,–,–,–,–,–
Active,Active,CC(C)Oc1ccc(C(=O)CCl)cc1[N+](=O)[O-],85.6%,inactive,inactive,27.7%,14.8%,inactive,24.8%,51.4%,38.9%,–,–,–,–,–,–,–,–,–
Active,Active,CCCCCOc1ccc(C(=O)C(Cl)Cl)cc1[N+](=O)[O-],98.1%,–,–,93.2%,80.2%,inactive,36.6%,68%,96.9%,32.3%,62.9%,–,–,–,–,–,–,–
Active,Active,CCOc1ccc(C(=O)C(Cl)Cl)cc1[N+](=O)[O-],98.2%,–,–,94.1%,88%,–,88%,99.3%,99%,37.8%,62.3%,57.3%,–,–,–,–,–,–
inactive,inactive,Cc1ccccc1NC(=O)C(Cl)Cl,22.9%,inactive,inactive,19.5%,9.9%,inactive,14.5%,15.4%,13.2%,–,–,–,–,–,–,–,–,–
41.7%,–,O=C(c1ccc(Cl)c([N+](=O)[O-])c1)C(Cl)Cl,100%,–,–,99.8%,86.7%,–,100%,100%,99.8%,34.7%,98.4%,96.3%,–,–,–,–,–,–
inactive,–,O=C(c1ccccc1[N+](=O)[O-])C(Cl)Cl,93.7%,–,–,61.5%,4.4%,inactive,22.4%,49.9%,6.1%,1.9%,4.8%,–,–,–,–,–,–,–
inactive,–,CCCc1ccc(C(=O)C(Cl)Cl)cc1[N+](=O)[O-],99.8%,inactive,–,69.5%,8.9%,–,60.2%,99.8%,65.2%,–,31.5%,29.8%,–,–,–,–,–,–
inactive,–,O=C(c1ccc(Cl)c(Cl)c1)C(Cl)Cl,98.4%,–,–,95.8%,74.5%,–,92.7%,100%,96.7%,42.1%,74.1%,54%,–,–,–,–,–,–
19.7 to 67.9%,–,COc1ccc(C(=O)C(Cl)Cl)cc1,98.3%,–,–,95.8%,50.1%,–,56.8%,84.9%,86.1%,7.5%,35.1%,32.5%,–,–,–,–,–,–
10.2%,–,Cc1cc(C(=O)C(Cl)Cl)ccc1Cl,99.2%,–,–,97.8%,51.7%,–,79.7%,98.8%,81%,13.2%,46.7%,38.8%,–,–,–,–,–,–
50.5%,–,Cc1ccc(C(=O)C(Cl)Cl)cc1[N+](=O)[O-],99.7%,–,–,89.5%,67.8%,–,69.8%,94.6%,89.5%,12.6%,15.8%,15.4%,–,–,–,–,–,–
inactive,–,CCCCc1ccc(C(=O)C(Cl)Cl)cc1[N+](=O)[O-],100%,inactive,–,65.2%,12%,–,57.2%,97.5%,56.9%,–,39.8%,22.3%,–,–,–,–,–,–

Compound,inhibition [1],inhibition [5],inhibition at 12 µM [2],inhibition [3],inhibition [4],inhibition at 6 µM [6],inhibition at 6 µM [7],inhibition [8],inhibition at 6 µM [9],inhibition at 12 µM [10],inhibition at 12 µM [11],inhibition at 2 µM [3],inhibition at 2 µM [4],inhibition at 2 µM [8],inhibition [2],inhibition [6],inhibition [7],inhibition [9],inhibition [10],inhibition [11]
O=C(Nc1ccccc1)C(Cl)Cl,inactive,inactive,30.2%,inactive,inactive,21.6%,14.6%,inactive,15.5%,21.3%,20.3%,–,–,–,–,–,–,–,–,–
O=C(c1cccs1)C(Cl)Cl,inactive,3.9%,95.8%,–,–,62.1%,34.7%,–,42.5%,73.4%,71.1%,6.9%,26.8%,16.8%,–,–,–,–,–,–
O=C(CCl)c1cccnc1,inactive,inactive,–,inactive,inactive,–,–,inactive,–,–,–,–,–,–,inactive,inactive,inactive,inactive,inactive,inactive
O=C(c1ccccc1I)C(Cl)Cl,inactive,–,96.5%,inactive,–,90.8%,7.8%,–,57.1%,99.4%,41.2%,–,28.6%,21%,–,–,–,–,–,–
Cc1ccccc1C(=O)C(Cl)Cl,inactive,–,93%,–,–,69.8%,62.2%,–,46.7%,69.6%,79.8%,23.7%,39.8%,27.2%,–,–,–,–,–,–
O=C(c1ccccc1Br)C(Cl)Cl,inactive,–,49.5%,–,inactive,14.3%,6.1%,inactive,–,0.4%,17.5%,1.4%,–,–,–,–,–,inactive,–,–
